Where “and” joins values, the source holds several entries; their conditions need not be identical. Identical values can stand only once. Entries after “also recorded” stand apart in the source; their conditions may differ. Like-named read-outs stand apart in the source and are kept apart here.
Experiments:
[1] = system: subcutaneous Metrazole (scMet) induced convulsions; settings: cited from earlier work
[2] = system: maximal electroshock seizures (MES);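 on animals with anti-MES activity at 5 mg/kg: seizures induced by corneal electroshock, 60-cycle alternating current at 50 mA for 0.2 s, protection means no hind limb tonic extension, scored right after the shock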;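 on safety ratio (SR=TD3/ED97), MES test: seizures induced by corneal electroshock, 60-cycle alternating current at 50 mA for 0.2 s, protection means no hind limb tonic extension, scored right after the shock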
Description: The preliminary screening was done at doses of the test compounds from 30 mg/kg up to 600 mg/kg adminstered ip in mice and evaluated against maximal electroshock seizures (MES) and subcutaneous Metrazole (scMet) induced convulsions and in the rotorod test for neurologic deficit.
(§1) All tests were performed using male Carworth Farms number-one mice. Test solutions of all compounds were prepared in 30% polyethylene glycol 400 and animals were dosed intraperitoneally (ip) at 30 minutes prior to testing.
Maximal electroshock seizures (MES) were elicited with a 60 cycle alternating current of 50 mA intensity delivered for 0.2 second via corneal electrodes. A drop of 0.9% saline was instilled in the eye prior to application of electrodes. The animals were examined and evaluated immediately after the electroshock for the occurrence of clonic, flexor tonic, or extensor tonic convulsions or death. Abolition of the hind limb tonic extension component of the seizure was defined as protection in the MES test. The ED50 was determined for the test compound as the dose which inhibited the occurrence of hind limb tonic convulsions in one half of the animals immediately after the electroshock as determined by graphical interpolation.
(§2) Neurological deficit was measured in mice using the rotorod test. The dosed animal was placed on a 1-inch diameter knurled plastic rod rotating at 6 rpm. Neurologic toxicity was defined as the failure of the animal to remain on the rod for 1 minute. The median anticonvulsant protency (ED50) and toxicity (TD50) were determined by the graphical method.

[3] = system: maximal electroshock seizures (MES); settings: cited from earlier work;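 on animals with anti-MES activity at 5 mg/kg: seizures induced by corneal electroshock, 60-cycle alternating current at 50 mA for 0.2 s, protection means no hind limb tonic extension, scored right after the shock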;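 on safety ratio (SR=TD3/ED97), MES test: seizures induced by corneal electroshock, 60-cycle alternating current at 50 mA for 0.2 s, protection means no hind limb tonic extension, scored right after the shock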
[4] = system: neurologic deficit (rotorod); settings: mouse, in vivo
Description: as §1, §2

in vivo [5] = settings: mouse, ip
Description: as §1

[6] = system: neurologic deficit (rotorod); assay: Rotorod test for neurologic deficit in mice, ip
Description: as §1, §2

[7] = system: subcutaneous Metrazole (scMet) induced convulsions; assay: Subcutaneous pentylenetetrazole (Metrazol) seizure threshold test (scMet) in mice, ip; settings: for minimal effective dose / ED50: Mus musculus; for ED50: read-out: scMET ED50
Description: Protection in this test was defined as a failure to observe a single episode of clonic spasms of at least 5 second duration during a 30 minute period following adminstration of the test compound.

[8] = system: convulsions induced by sc picrotoxin; assay: sc picrotoxin induced seizures in mice; assay type: in vivo; settings: doses up to 30 mg/kg
[9] = system: convulsions induced by sc strychnine; assay: sc strychnine induced seizures in mice; assay type: in vivo; settings: doses up to 30 mg/kg
[10] = system: convulsions induced by sc bicuculline; assay: sc bicuculline induced seizures in mice; assay type: in vivo; settings: doses up to 30 mg/kg
in vivo [11] = settings: mouse, ip; remark: listed apart in the source
Description: as §1, §2

[12] = man; cited from earlier work
[13] = ip, 0.5 h, read-out: scMet activity, 30 min
[14] = ip, 4 h, read-out: scMet activity, 4 hrs
[15] = previous studies by Clark et al.

CC(NC(=O)c1ccc(N)cc1)c1ccccc1 (stereo not drawn) [Compound 14]
scMET ED50 ([1]; Clark et al, ip, mice): 41.78 mg/kg | scMET PI (TD50/ED50) ([1]; Clark et al, ip, mice): 4.10 | safety ratio (SR=TD3/ED97), MES test ([2]; mouse, in vivo, ip): 3.5 | MES ED50 ([3]; Clark et al, ip, mice): 18.02 mg/kg | MES PI (TD50/ED50) ([3]; Clark et al, ip, mice): 9.50 | lethal dose (LD50) (ip, mice): 718.18 mg/kg

Cc1cccc(C)c1NC(=O)c1ccc(N)cc1 [Example 1, 4-Amino-N-(2,6-dimethylphenyl) benzamide]
animals with rotorod toxicity at 20 mg/kg [4]: 3 of 4 | animals with rotorod toxicity at 30 mg/kg [4]: all aminals | increase in toxicity over compound 14 [4]: ~10 fold | time of peak effect for toxicity [4]: 30 min | rotorod toxicity, dose, 30 min ([4]; ip, 30 min): 30 mg/kg | rotorod toxicity, dose, 4 hours ([4]; ip, 240 min): 100 mg/kg | LD50 (in vivo [5]): 161 mg/kg | TD50 (in vivo [5]): 43.8 mg/kg | toxicity (in words) [6]: most toxic | anti-scMet activity (in words), 30 min ([7]; 30 minutes, ip, mice): No anti-scMet activity | anti-scMet activity (in words), 4 hours ([7]; 4 hours, ip, mice): No anti-scMet activity | minimal effective dose [7, 13]: > 300 mg/kg | minimal effective dose [7, 14]: > 300 mg/kg | effect against convulsions induced by sc metrazole ([7]; doses up to 30 mg/kg, mice): ineffective | anti-scMet activity (in words) ([7]; ip, mice): absent | animals with anti-MES activity at 5 mg/kg ([2]; 5 mg/kg, 30 minutes, ip): 4 of 4 | animals with anti-MES activity at 30 mg/kg ([2]; ip, mice): all aminals | anti-MES activity, active dose, 4 hours ([2]; 4 hours after ip administration, mice): 30 mg/kg | MES ED50 ([2]; ip, mice): 2.60 mg/kg and 2.6 mg/kg | anti-MES / anticonvulsant activity (in words) ([2]; ip, mice): good anti-MES activity; also recorded: most potent amide of PABA observed thus far; also recorded: greater potency than any of the prototype anticonvulsant | increase in anti-MES activity over compound 14 ([2]; mice): ~10 fold | time of peak effect for anti-MES activity ([2]; mice): 30 min | PI values (in words) ([2]; mouse, in vivo, ip): higher PI values | effect against convulsions induced by sc picrotoxin [8]: ineffective | effect against convulsions induced by sc strychnine [9]: ineffective | additional toxicity at higher doses (2×TD50 and 4×TD50, ip, mice): muscle relaxation, loss of righting reflex, decreased respiration with cyanosis and ptosis | toxicity induced by the TD50 dose (TD50 dose, ip, mice): decreased motor activity, spasticity, ataxia, rotorod toxicity and sedation | time after which all symptoms had disappeared (mouse, in vivo, ip): ≤ 2 h | effect against convulsions induced by sc bicuculline [10]: ineffective

Nc1ccc(C(=O)Nc2ccccc2)cc1 [Example 2]
activity against scMet induced convulsions (dose range) [1, 15]: ~50 mg/kg | minimal effective dose [7, 13]: 100 mg/kg | minimal effective dose [7, 14]: > 600 mg/kg | scMET PI (protective index = TD50/ED50) ([7]; ip, mice): 1.88 | MES PI (protective index = TD50/ED50) ([2]; mouse, in vivo, ip): 2.20 | activity against MES induced convulsions (dose range) [3, 15]: ~50 mg/kg

Cc1ccccc1NC(=O)c1ccc(N)cc1 [Example 3, 4-amino-N-(2-methylphenyl) benzamide]
LD50 (in vivo [5]): < 600 mg/kg | minimal effective dose [7, 13]: > 300 mg/kg | minimal effective dose [7, 14]: > 300 mg/kg

Cc1cccc(NC(=O)c2ccc(N)cc2)c1 [Example 4]
TD50 ([4]; ip): 142.51 mg/kg | minimal effective dose [7, 13]: 300 mg/kg | minimal effective dose [7, 14]: > 600 mg/kg | ED50 ([7]; ip): 87.9 mg/kg | scMET PI (protective index = TD50/ED50) ([7]; ip, mice): 1.62 | MES ED50 ([2]; ip, mice): 46.96 mg/kg | difference between the dosages producing toxicity and anti-MES activity ([2]; ip, mice): appreciable difference between the dosages producing toxicity and anti-MES activity | MES PI (protective index = TD50/ED50) ([2]; mouse, in vivo, ip): 3.03

Cc1ccc(NC(=O)c2ccc(N)cc2)cc1 [Example 5, 4-amino-N-(4-methylphenyl) benzamide]
minimal effective dose [7, 13]: 30 mg/kg | minimal effective dose [7, 14]: > 600 mg/kg

Cc1cccc(NC(=O)c2ccc(N)cc2)c1C [Example 6]
TD50 ([4]; ip): 103.90 mg/kg | LD50 (in vivo [5]): < 600 mg/kg | minimal effective dose [7, 13]: 100 mg/kg | minimal effective dose [7, 14]: > 300 mg/kg | animals with anti-MES activity at 30 mg/kg ([2]; ip, mice): approximately half the animals | MES ED50 ([2]; ip, mice): 25.25 mg/kg | PI values (in words) ([2]; ip, mice): higher PI values | anti-MES / anticonvulsant activity (in words) ([2]; ip, mice): good anti-MES activity | MES PI (protective index = TD50/ED50) ([2]; mouse, in vivo, ip): 4.11

Cc1ccc(NC(=O)c2ccc(N)cc2)c(C)c1 [Example 7]
minimal effective dose [7, 13]: 600 mg/kg | minimal effective dose [7, 14]: > 600 mg/kg | anti-MES / anticonvulsant activity (in words) ([2]; ip, mice): good anti-MES activity

Cc1ccc(C)c(NC(=O)c2ccc(N)cc2)c1 [Example 8]
minimal effective dose [7, 13]: 300 mg/kg | minimal effective dose [7, 14]: > 600 mg/kg | anti-MES / anticonvulsant activity (in words) ([2]; ip, mice): good anti-MES activity

Cc1ccc(NC(=O)c2ccc(N)cc2)cc1C [Example 9]
TD50 ([4]; ip): 194.14 mg/kg | minimal effective dose [7, 13]: 300 mg/kg | minimal effective dose [7, 14]: 300 mg/kg | ED50 ([7]; ip): 80.8 mg/kg | MES ED50 ([2]; ip, mice): 42.31 mg/kg | PI values (in words) ([2]; ip, mice): higher PI values | anti-MES / anticonvulsant activity (in words) ([2]; ip, mice): good anti-MES activity | MES PI (protective index = TD50/ED50) ([2]; mouse, in vivo, ip): 4.59

Cc1cc(C)cc(NC(=O)c2ccc(N)cc2)c1 [Example 10]
minimal effective dose [7, 13]: > 600 mg/kg | minimal effective dose [7, 14]: > 600 mg/kg | anti-MES / anticonvulsant activity (in words) ([2]; ip, mice): good anti-MES activity

CC(C)c1ccccc1NC(=O)c1ccc(N)cc1 [Example 11]
TD50 ([4]; ip): 708.98 mg/kg | minimal effective dose [7, 13]: 600 mg/kg | MES ED50 ([2]; ip, mice): 81.52 mg/kg | PI values (in words) ([2]; ip, mice): highest PI values | MES PI (protective index = TD50/ED50) ([2]; mouse, in vivo, ip): 8.70

Cc1cccc(C(C)C)c1NC(=O)c1ccc(N)cc1 [Example 12]
rotorod toxicity at 600 mg/kg [4]: no rotorod toxicity | TD50 ([4]; ip): > 1500.0 mg/kg | TD50 (in vivo [11]): 1500 to 2000 mg/kg | minimal effective dose [7, 13]: > 600 mg/kg | minimal effective dose [7, 14]: > 600 mg/kg | MES ED50 ([2]; ip, mice): 86.13 mg/kg | PI values (in words) ([2]; ip, mice): highest PI values | anti-MES / anticonvulsant activity (in words) ([2]; ip, mice): more potent | MES PI (protective index = TD50/ED50) ([2]; mouse, in vivo, ip): > 17.42

CCc1cccc(C(C)C)c1NC(=O)c1ccc(N)cc1 [Example 13]
TD50 ([4]; ip): 49.10 mg/kg | LD50 (in vivo [5]): < 600 mg/kg | animals with rotorod toxicity at 30 mg/kg ([6]; 30 mg/kg): 1 out of 4 | minimal effective dose [7, 13]: 300 mg/kg | minimal effective dose [7, 14]: > 600 mg/kg | MES ED50 ([2]; ip, mice): 16.67 mg/kg | anti-MES / anticonvulsant activity (in words) ([2]; ip, mice): more potent | MES PI (protective index = TD50/ED50) ([2]; mouse, in vivo, ip): 2.95

Cc1cccc(C)c1NC(=O)c1cccc(N)c1 [II-1, 3-amino-N-(2,6-dimethylphenyl) benzamide]
TD50 (in vivo [11]): 285 mg/kg | MES ED50 ([2]; ip, mice): 13.48 mg/kg | MES PI (protective index = TD50/ED50) ([2]; mouse, in vivo, ip): 21.11

CCC1(c2ccccc2)C(=O)NC(=O)NC1=O [Phenobarbital, reference compound]
ED50 ([7]; ip): 13.2 mg/kg | MES ED50 ([2]; ip, mice): 21.78 mg/kg | lethal dose (LD50) (ip, mice): 264.70 mg/kg

O=C1NC(=O)C(c2ccccc2)(c2ccccc2)N1 [Phenytoin]
plasma level at which ataxia is obvious [12]: 30 µg/mL | plasma level at which lethargy is apparent [12]: about 40 mcg/ml | plasma level at which nystagmus is seen [12]: around 20 mcg/ml | plasma level controlling seizures [12]: ≥ 10 µg/mL

CCCC(CCC)C(=O)O [Valproic Acid, reference compound]
LD50 (in vivo [5]): 1100 mg/kg | ED50 ([7]; ip): 149 mg/kg
